US20060134719A1, “Novel serine protease” (priority 2002, published 2006)
*: point of attachment. AMC = Cc1cc(=O)oc2cc(N*)ccc12; Boc = CC(C)(C)OC(=O)*; OBn = c1ccc(CO*)cc1

The substances below were run against T1, signal-FLAG-ARS-SerPD culture supernatant (SEQ ID NO:2 237th to 531st) (Homo sapiens, UniProt Q7Z410) (assay: Enzymatic cleavage of MCA-labeled synthetic peptides by signal-FLAG-ARS-SerPD culture supernatant). Details: substrate 100 μM in TBS pH 7.5, 37° C.; never obtained with blank vector supernatant.
T1 construct: made in house; host or cells: HEK293-EBNA
T1 sequence (Q7Z410 with tags, fused parts or gaps): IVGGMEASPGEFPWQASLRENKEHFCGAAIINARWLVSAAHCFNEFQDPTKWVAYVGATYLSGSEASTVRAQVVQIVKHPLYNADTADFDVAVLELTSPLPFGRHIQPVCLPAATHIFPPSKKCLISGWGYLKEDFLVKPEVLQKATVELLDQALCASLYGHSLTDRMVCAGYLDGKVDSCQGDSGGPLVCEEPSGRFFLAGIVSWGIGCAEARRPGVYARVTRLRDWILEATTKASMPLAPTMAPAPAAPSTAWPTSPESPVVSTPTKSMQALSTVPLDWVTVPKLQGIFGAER
Assay type: biochemical
Protocol: The expression plasmids prepared in Examples 3 to 5 were introduced into HEK293-EBNA cell (Invitrogen) using a transfection reagent (FuGENE™6 transfection reagent; Roche) according to the instruction attached thereto. After the introduction of the plasmids, the culture medium was replaced with a serum-free culture medium within 12 to 16 hours and further incubated for another 48 to 60 hours. The culture supernatant was collected and resulting each liquid culture was centrifuged (3000 rpm, 10 minutes) with a centrifuge (Type 8800; Kubota) to obtain culture supernatants. After removing the culture supernatants, the remaining cells were washed with phosphate buffer (PBS; 10 mM sodium phosphate, pH 7.5) and then recovered by scraping from the culture plate by pipetting with phosphate buffer, and centrifuged with a centrifuge (Type 8800; Kubota) at 3000 rpm for 10 minutes. The resulting precipitate was suspended in phosphate buffer, which was defined as the cell fraction. The culture supernatants obtained by the introduction of pCEP-ARSF-FLAG, pCEP-signal-FLAG-ARS-extracellular and pCEP-signal-FLAG-ARS-SerPD are referred to as ARS-FLAG culture supernatant, signal-FLAG-ARS-extracellular culture supernatant, signal-FLAG-ARS-SerPD culture supernatant and signal-FLAG-ARS-SerPDO culture supernatant, respectively.
The method for detecting enzymatic cleavage activity using a synthetic peptide labeled with MCA (4-methyl-coumaryl-7-amide) in the C terminus was according to the method reported in an academic paper (Yasuoka, S. et al., Am. J. Respir. Cell Mol Biol., Vol. 16, 300-308, 1997), unless otherwise described. […] Subsequently, the fluorescence of AMC (7-amino-4-methyl-coumarin) released from the synthetic peptide by enzymatic cleavage was measured at a wavelength of 460 nm for measurement, using an excitation wavelength of 390 nm with a fluorescent plate reader (Fluostar, SLT).

Substance | cleavage activity of synthetic peptide (fluorescence of released AMC)
Boc-Phe-Ser-Arg-{AMC} | showed the cleavage activity
Boc-Glu(OBn)-Ala-Arg-{AMC} | showed the cleavage activity
Boc-Gln-Arg-Arg-{AMC} | showed the cleavage activity
